# According to ChEMBL document CHEMBL3885881, “DrugMatrix”:
# Organism: Rattus norvegicus
# Assay: DrugMatrix - Regimen: Daily Repeat
# Assay type: toxicity, organism-based, Sprague-Dawley
# Design: regimen Daily Repeat, gender Male, age 6-8 weeks
# Conditions: in vivo, po, route oral GAVAGE, […]; for ABSOLUTE BASOPHIL / BASOPHIL / NUCLEATED RED BLOOD CELLS / ABSOLUTE EOSINOPHIL / EOSINOPHIL / ERYTHROCYTE COUNT / HEMATOCRIT / HEMOGLOBIN / LEUKOCYTE COUNT / LYMPHOCYTE / MEAN CORPUSCULAR HEMOGLOBIN / MEAN CORPUSCULAR HEMOGLOBIN CONCENTRATION / MEAN CORPUSCULAR VOLUME / MONOCYTE / NEUTROPHIL / PLATELET COUNT / ABSOLUTE LYMPHOCYTE / ABSOLUTE MONOCYTE / ABSOLUTE SEGMENTED NEUTROPHIL: tissue Blood
# [1] = 0 mg/kg, 72 h, dose level Control, time 3 day
# [2] = 0 mg/kg, 120 h, dose level Control, time 5 day
# [3] = 0 mg/kg, dose level Control, time 28 day
# [4] = 0 mg/kg, tissue Plasma, dose level Control, time 28 day
# [5] = 23 mg/kg, 72 h, dose level Low, time 3 day
# [6] = 23 mg/kg, 72 h, tissue Plasma, dose level Low, time 3 day
# [7] = 23 mg/kg, 120 h, dose level High, time 5 day
# [8] = 23 mg/kg, 120 h, dose level Low, time 5 day
# [9] = 23 mg/kg, 120 h, tissue Plasma, dose level High, time 5 day
# [10] = 23 mg/kg, 120 h, tissue Plasma, dose level Low, time 5 day
smiles,measurement,setting,value
CC1=C(CC(=O)O)c2cc(F)ccc2/C1=C\c1ccc([S+](C)[O-])cc1 (stereo not given),ABSOLUTE BASOPHIL,[1],0 CELLS/uL
same,BASOPHIL,[1],0%
same,NUCLEATED RED BLOOD CELLS,[1],0 /100WBC
same,ABSOLUTE BASOPHIL,[2],0 CELLS/uL
same,ABSOLUTE EOSINOPHIL,[2],0 CELLS/uL
same,BASOPHIL,[3],0.42%
same,EOSINOPHIL,[3],0.58%
same,ERYTHROCYTE COUNT,[3],8.06 x10E6/uL
same,HEMATOCRIT,[3],48.44%
same,HEMOGLOBIN,[3],16.34 G/DL
same,LEUKOCYTE COUNT,[3],13.04 x10E3/uL
same,LYMPHOCYTE,[3],85.12%
same,MEAN CORPUSCULAR HEMOGLOBIN,[3],20.26 pg
same,MEAN CORPUSCULAR HEMOGLOBIN CONCENTRATION,[3],33.74 G/DL
same,MEAN CORPUSCULAR VOLUME,[3],60.1 fL
same,MONOCYTE,[3],1.44%
same,NEUTROPHIL,[3],11.28%
same,PLATELET COUNT,[3],1226 x10E3/uL
same,ALANINE AMINOTRANSFERASE,[4],28.6 u/L
same,ALBUMIN,[4],3.94 G/DL
same,ALKALINE PHOSPHATASE,[4],254.6 u/L
same,ASPARTATE AMINOTRANSFERASE,[4],67.8 u/L
same,BLOOD UREA NITROGEN,[4],10.4 mg/dL
same,CHLORIDE,[4],104.6 MEQ/L
same,CHOLESTEROL,[4],57.6 mg/dL
same,CREATINE PHOSPHOKINASE,[4],224.8 u/L
same,CREATININE,[4],0.4 mg/dL
same,GLUCOSE,[4],140.6 mg/dL
same,PHOSPHORUS,[4],10.66 mg/dL
same,POTASSIUM,[4],6.58 MEQ/L
same,SODIUM,[4],148.6 MEQ/L
same,TOTAL BILIRUBIN,[4],0.24 mg/dL
same,TOTAL PROTEIN,[4],6.64 G/DL
same,ABSOLUTE BASOPHIL,[5],0 CELLS/uL
same,ABSOLUTE EOSINOPHIL,[5],0 CELLS/uL
same,ABSOLUTE LYMPHOCYTE,[5],6660 CELLS/uL
same,ABSOLUTE MONOCYTE,[5],202 CELLS/uL
same,ABSOLUTE SEGMENTED NEUTROPHIL,[5],1671.33 CELLS/uL
same,BASOPHIL,[5],0%
same,EOSINOPHIL,[5],0%
same,ERYTHROCYTE COUNT,[5],4.91 x10E6/uL
same,HEMATOCRIT,[5],31.27%
same,HEMOGLOBIN,[5],12.6 G/DL
same,LEUKOCYTE COUNT,[5],8.53 x10E3/uL
same,LYMPHOCYTE,[5],79.33%
same,MEAN CORPUSCULAR HEMOGLOBIN,[5],25.63 pg
same,MEAN CORPUSCULAR HEMOGLOBIN CONCENTRATION,[5],40.27 G/DL
same,MEAN CORPUSCULAR VOLUME,[5],63.67 fL
same,MONOCYTE,[5],2.33%
same,NEUTROPHIL,[5],18.33%
same,NUCLEATED RED BLOOD CELLS,[5],0 /100WBC
same,PLATELET COUNT,[5],1080 x10E3/uL
same,ALANINE AMINOTRANSFERASE,[6],65.67 u/L
same,ALBUMIN,[6],3.97 G/DL
same,ALKALINE PHOSPHATASE,[6],429 u/L
same,ASPARTATE AMINOTRANSFERASE,[6],75.67 u/L
same,BLOOD UREA NITROGEN,[6],14.33 mg/dL
same,CARBON DIOXIDE,[6],38.33 mmol/L
same,CHLORIDE,[6],99.33 MEQ/L
same,CHOLESTEROL,[6],87 mg/dL
same,CREATINE PHOSPHOKINASE,[6],223.33 u/L
same,CREATININE,[6],0.18 mg/dL
same,GLUCOSE,[6],181 mg/dL
same,LACTATE DEHYDROGENASE,[6],60.67 u/L
same,LIPASE,[6],16 u/L
same,PHOSPHORUS,[6],9.23 mg/dL
same,POTASSIUM,[6],4.45 MEQ/L
same,SODIUM,[6],143.57 MEQ/L
same,TOTAL BILIRUBIN,[6],0.13 mg/dL
same,TOTAL PROTEIN,[6],5.8 G/DL
same,URIC ACID,[6],0.47 mg/dL
same,BASOPHIL,[7],0.28%
same,EOSINOPHIL,[7],0.82%
same,ERYTHROCYTE COUNT,[7],7.33 x10E6/uL
same,HEMATOCRIT,[7],47.1%
same,HEMOGLOBIN,[7],14.9 G/DL
same,LEUKOCYTE COUNT,[7],7.35 x10E3/uL
same,LYMPHOCYTE,[7],79.44%
same,MEAN CORPUSCULAR HEMOGLOBIN,[7],20.4 pg
same,MEAN CORPUSCULAR HEMOGLOBIN CONCENTRATION,[7],31.66 G/DL
same,MEAN CORPUSCULAR VOLUME,[7],64.4 fL
same,MONOCYTE,[7],1.92%
same,NEUTROPHIL,[7],16.36%
same,PLATELET COUNT,[7],1405.2 x10E3/uL
same,ABSOLUTE BASOPHIL,[8],0 CELLS/uL
same,ABSOLUTE EOSINOPHIL,[8],0 CELLS/uL
same,ABSOLUTE LYMPHOCYTE,[8],5718.33 CELLS/uL
same,ABSOLUTE MONOCYTE,[8],84 CELLS/uL
same,ABSOLUTE SEGMENTED NEUTROPHIL,[8],664.33 CELLS/uL
same,BASOPHIL,[8],0%
same,EOSINOPHIL,[8],0%
same,ERYTHROCYTE COUNT,[8],5.51 x10E6/uL
same,HEMATOCRIT,[8],34.03%
same,HEMOGLOBIN,[8],13.47 G/DL
same,LEUKOCYTE COUNT,[8],6.47 x10E3/uL
same,LYMPHOCYTE,[8],88.33%
same,MEAN CORPUSCULAR HEMOGLOBIN,[8],24.47 pg
same,MEAN CORPUSCULAR HEMOGLOBIN CONCENTRATION,[8],39.6 G/DL
same,MEAN CORPUSCULAR VOLUME,[8],61.87 fL
same,MONOCYTE,[8],1.33%
same,NEUTROPHIL,[8],10.33%
same,NUCLEATED RED BLOOD CELLS,[8],0.33 /100WBC
same,PLATELET COUNT,[8],949.67 x10E3/uL
same,ALANINE AMINOTRANSFERASE,[9],32.2 u/L
same,ALBUMIN,[9],3.8 G/DL
same,ALKALINE PHOSPHATASE,[9],308.4 u/L
same,ASPARTATE AMINOTRANSFERASE,[9],75.4 u/L
same,BLOOD UREA NITROGEN,[9],8.8 mg/dL
same,CHLORIDE,[9],109 MEQ/L
same,CHOLESTEROL,[9],63.8 mg/dL
same,CREATINE PHOSPHOKINASE,[9],287.2 u/L
same,CREATININE,[9],0.42 mg/dL
same,GLUCOSE,[9],131.8 mg/dL
same,PHOSPHORUS,[9],14.88 mg/dL
same,POTASSIUM,[9],6.36 MEQ/L
same,SODIUM,[9],151.6 MEQ/L
same,TOTAL BILIRUBIN,[9],0.18 mg/dL
same,TOTAL PROTEIN,[9],6.24 G/DL
same,ALANINE AMINOTRANSFERASE,[10],67.33 u/L
same,ALBUMIN,[10],4.17 G/DL
